Measured values published in patent publication EP0231622B1, “Inhibition of the 5-lipoxygenase pathway” (priority 1985, dated 1987).
Marks after values point to notes of the source that are not given here.

Experiments:
Cyclooxygenase = Cyclooxygenase activity (PGD2) in 10,000 x g supernatant of RBL-1 cells; type: biochemical; settings: text b252; RBL-1 cell extracts; read-out: IC₅₀ PGD₂ production
5-Lipoxygenase = target: T1, 5-Lipoxygenase (Rattus norvegicus, UniProt P12527); assay: 5-Lipoxygenase activity (5-HETE) in 10,000 x g supernatant of RBL-1 cells; type: biochemical; settings: text b252; RBL-1 cell extracts; read-out: IC₅₀ 5-HETE synthesis
T1 construct: The activities of these enzymes in extracts of RBL-1 cells were assayed; host or cells: RBL-1 cells, disrupted by nitrogen cavitation; 10,000 x g or 100,000 x g supernatant
T1 sequence (P12527 1-673): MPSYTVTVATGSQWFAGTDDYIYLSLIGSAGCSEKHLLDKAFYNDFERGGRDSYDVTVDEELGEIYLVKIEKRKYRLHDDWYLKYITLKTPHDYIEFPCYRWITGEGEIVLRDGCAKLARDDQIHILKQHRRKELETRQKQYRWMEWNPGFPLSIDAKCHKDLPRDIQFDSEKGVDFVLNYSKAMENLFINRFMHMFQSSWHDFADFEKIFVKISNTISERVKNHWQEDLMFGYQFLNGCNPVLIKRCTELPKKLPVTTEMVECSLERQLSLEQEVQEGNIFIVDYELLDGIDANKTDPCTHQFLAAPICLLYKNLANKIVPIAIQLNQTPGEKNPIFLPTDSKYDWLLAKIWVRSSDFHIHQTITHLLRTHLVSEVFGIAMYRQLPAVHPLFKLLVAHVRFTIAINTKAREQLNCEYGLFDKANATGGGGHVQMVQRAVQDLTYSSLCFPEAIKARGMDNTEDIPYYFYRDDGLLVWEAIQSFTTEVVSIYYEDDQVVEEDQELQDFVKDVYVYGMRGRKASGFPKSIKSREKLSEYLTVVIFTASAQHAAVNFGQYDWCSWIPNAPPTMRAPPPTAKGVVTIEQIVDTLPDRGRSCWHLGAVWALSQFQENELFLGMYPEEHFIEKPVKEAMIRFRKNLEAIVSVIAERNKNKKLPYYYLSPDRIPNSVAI

5-LO = target: T2, 5-LO (Rattus norvegicus, UniProt P12527); assay: di-HETE production by RBL-1 high speed supernatant; type: biochemical
T2 construct: The activities of these enzymes in extracts of RBL-1 cells were assayed; host or cells: RBL-1 cells, disrupted by nitrogen cavitation; 10,000 x g or 100,000 x g supernatant
T2 sequence (P12527 1-673): T1 sequence (P12527 1-673)
Outline: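 RBL-1 cell 100,000 x g supernatant was preincubated 10 min with compound, then given CaCl₂ and 25 uM [¹⁴C]arachidonic acid for 3 min at 37°C. 5-HETE and di-HETE were quantified by TLC radioscanning. A variant re-centrifuged the supernatant and incubated 5 min at 5°C with 2 mM CaCl₂.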

[1] = tested on: Experimental Allergic Encephalomyelitis; assay: Experimental allergic encephalomyelitis, hindleg paralysis; type: in vivo, Female Lewis rats; settings: 60 Mg/kg/day, p.o. days 0-4, 7-11, 14-18
Procedure: EAE is induced in Female (Charles River) Lewis rats by a single intradermal injection of 0.1 ml of an encephalitogenic emulsion consisting of equial parts of a 50% w/v homogenate of guinea pig spinal cord and mid-brain in 0.5% aqueous phenol and Freund's complete adjuvant (4 mg/ml killed, dried M. butyricum) into a hindpaw (left) footpad. […] Any animal which becomes paralyzed during the course of the experiment is considered to have developed EAE whether or not the paralysis is permanent. Test compounds are administered daily beginning on the day of injection, for 19 days, exclusive of days 5, 6 12 and 13. Drug activity is determined by comparing the indicidence of EAE (paralysis) of the treated group with a control (vehicle) group. The level of significant difference between the treated groups and control groups is determined by a Chi-square test using a 2x2 contingency table. Body weight changes from day 0 are also statistically compared to the control group using a Student "t" test.

IC50 (Cyclooxygenase): 100 µM
IC50 (5-Lipoxygenase): 75 µM
Di-HETE (nM/ml) (5-LO; 1 uM): 1.56 ± 0.06 nM/ml
inhibition at 1 µM (5-LO; 1 uM, read-out: % Control (Di-HETE)): 19.7%
Di-HETE (nM/ml) (5-LO; 3.3 uM): 1.34 ± 0.12 nM/ml
inhibition at 3.3 µM (5-LO; 3.3 uM, read-out: % Control (Di-HETE)): 30.9%
Di-HETE (nM/ml) (5-LO; 10 uM): 0.88 ± 0.21 nM/ml
inhibition at 10 µM (5-LO; 10 uM, read-out: % Control (Di-HETE)): 54.8%
Di-HETE (nM/ml) (5-LO; 33 uM): 0.40 ± 0.08 nM/ml
inhibition at 33 µM (5-LO; 33 uM, read-out: % Control (Di-HETE)): 79.6%
Di-HETE (nM/ml) (5-LO; 100 uM): 0.03 ± 0.04 nM/ml
inhibition at 100 µM (5-LO; 100 uM, read-out: % Control (Di-HETE)): 98.3%
IC50 (5-LO; soluble extract of RBL-1 cells containing only lipoxygenase activity, read-out: IC₅₀ eicosanoid formation (di-HETE production)): 7.5 µM
SMILES: Fc1ccc(-c2nc3n(c2-c2ccncc2)CCS3)cc1 [Compound 1, 5-(4-pyridyl)-6-(4-fluorophenyl)-2,3-dihydroimidazo[2,1-b]thiazole]
HINDLEG PARALYSIS - CUMULATIVE INCIDENCE DAY 9 TO 13 [1]: 10/12
HINDLEG PARALYSIS - CUMULATIVE INCIDENCE DAY 14 TO 18 [1]: 0/11**
